Key:
[1] = Oral bioavailability of the compound in dogs; details: dog, in vivo
Method: (§1) The poor water solubility results in poor oral bioavailability in dogs, often below 50%. The log P of the compound of Formula (I) is calculated to be 1.25 (Chem Draw and Insight for Excel). To increase solubilization and promote bioavailability, Applicants have dosed the compound in the amorphous state as part of an amorphous solid dispersion (ASD). […] Therefore, the ASD was manufactured by co-precipitation or cPAD (co-precipitated amorphous dispersion). In this process, the compound and a polymer were dissolved into a solvent. The compound-polymer solution was then rapidly precipitated in an anti-solvent under high shear in a rotor-stator homogenizer. and the compound-polymer amorphous solid dispersion was formed.

[2] = Solubility of the compound (water, volatile solvents); type: physicochemical
Method: as §1

[3] = In vitro anti-nucleating polymer screen in simulated gastric fluid (PION UV probe); type: physicochemical; details: only simulated gastric fluid (SGF) pH 1.8, no polymer; 2 hours, 272 nm
Method: FIG. 3—Several anti-nucleating polymers were assessed for ability to maintain the compound of Formula (I) in an in vitro screen.
In an attempt to improve the bioavailability of the compound of Formula (I) in animals administered in the fed state, anti-nucleating agents were added to the pharmaceutical composition to decrease the potential for crystallization of the compound. Several anti-nucleation polymers were assessed for ability to maintain the compound of Formula (I) in an in vitro screen. 0.5% solution of each anti-nucleating polymer was prepared in simulated gastric fluid, pH 1.8. 75 uL of 10 mg/mL API in DMSO was added into 5 mL of the 0.5% polymer solution and monitored by PION UV probe for 2 hours at 272 nm. […] When the other polymers were used, the concentration of the compound of Formula (I) was initially maintained but finally was reduced before the 2 hour test was completed.

cIL-31 induced pruritus = details: with respect to placebo, similar magnitude to oclacitinib (Apoquel); cited from earlier work

COc1cc(Nc2nn([C@H]3COCC[C@@H]3C#N)cc2C(N)=O)cc(F)n1 [compound of Formula (I), 1-[(3R,4S)-4-cyanotetrahydropyran-3-yl]-3-[(2-fluoro-6-methoxy-4-pyridyl)amino]pyrazole-4-carboxamide]
bioavailability [1]: < 50% | solubility in volatile solvents ([2]; isopropanol, acetone, dichloromethane): low solubility | water solubility ([2]; water): poorly water soluble | concentration of the compound of Formula (I) in control [3]: dropped almost immediately | suppression of pruritus (cIL-31 induced pruritus): significantly suppressed pruritus

From patent US12653788B2, “Pharmaceutical composition of a pyrazole compound dispersed in a polymer matrix” (Intervet Inc., priority 2019, dated 2026)
